Where “and” joins values, the source holds several entries; their conditions need not be identical. Equal entries are not always repeated.
Experiments:
[1] = system: HD model flies (elav-GAL4 UAS-htt128Q); experiment: Assay of locomotor activity (climbing speed) using the transgenic Drosophila HD model; assay type: in vivo; design: Early Speed Effect Size, Summary / Late Speed Effect Size, Summary / Early Speed Effect Size / Late Speed Effect Size / Early Speed Adj Value / Late Speed Adj Value / Early Speed Effect Size, combined campaigns / Late Speed Effect Size, combined campaigns: unit not given here; conditions: for Early Speed Effect Size, combined campaigns / Early Speed Percent TSA, combined campaigns / Early Speed Effect Size / Early Speed Adj Value / Early Speed Percent TSA: days 1 to 7; for Early Speed Effect Size, combined campaigns / Early Speed Percent TSA, combined campaigns / Late Speed Effect Size, combined campaigns / Late Speed Percent TSA, combined campaigns: drawing 84; for Late Speed Effect Size, combined campaigns / Late Speed Percent TSA, combined campaigns / Late Speed Percent TSA / Late Speed Adj Value / Late Speed Effect Size: days 8 to 10; for Early Speed Effect Size, Summary / Early Speed Percent TSA, Summary: days 1-7; for Late Speed Effect Size, Summary / Late Speed Percent TSA, Summary: days 8-10; for Early Speed Effect Size: food conc 50 (unit not printed; b38: μM); for Early Speed Effect Size / Late Speed Effect Size: vs DMSO carrier; for Early Speed Effect Size / Early Speed Adj Value / Early Speed Percent TSA / Late Speed Percent TSA / Late Speed Adj Value / Late Speed Effect Size: single campaigns; for Early Speed Percent TSA: effect size as percentage of positive control TSA; for Late Speed Percent TSA: effect size as percentage of TSA
Procedure: Female “activator” or “driver” flies were engineered to contain the neuronal specific drivers elav-GAL4 or nirvana-GAL4 in a heat shock-hid Y (phs-hidY or HS-hid+ on Y chomosome) background (Starz-Gaiano et al., 2001). The hid gene is a pro-apoptotic gene, which is expressed in this line by a heat inducible promoter. These flies can be heat shocked in bottles twice over 2 days for 2 hours to kill male larvae and thereby produce massive numbers of elav-GAL4 or nirvana-GAL4 virgin females.
For the mass production of males (either UAS-htt128Q[F27B]/UAS-htt128Q[F27B], the disease transgenes were moved into lines that contain an attached X-chromosome with the same phs-hid element (X^XPhs-hidY) used above. In this scheme the hid gene is present only in female flies and therefore is used to produce large numbers of male flies by heat shock. The massive collection of virgin female elav-GAL4 flies are crossed with the massive collection of males that contain the silent disease-transgene. Their progeny, the F1 generation, are the “assay flies” (e.g., elav-GAL4UAS-htt128Q[F27B]). These assay flies are robotically distributed into drugged assay vials.
The HD Drosophila model express exons 1 to 4 of the human huntingtin gene with 128Q repeats in exon 1. The construct was cloned into the Drosophila transformation vector, pUAST. These were then crossed to GAL4 driver lines that direct expression either to the eye (GMR-GAL4 promoter) or to neurons (elav-GAL4 promoter). […] Progressive degeneration of the photoreceptors was observed after several days of adult life. The properties of the HD128Q flies were consistent with those reported by others for two other strains in which exon-1 containing expanded repeats was expressed in the eye (Jackson et al., 1998; Steffan et al., 2001—US20040142859). To test the effects on motor function of the HD mutation, HD128Q lines were examined in which the transgene was expressed in all neurons. Motor function was assayed by tapping flies in a vial to the bottom and measuring the number of flies that are able to climb to a specified height within a specific length of time. When tapped to the bottom of a vial, wild-type flies rapidly climb to the top, where most of them remain. […] The decline in motor performance was progressive, leading to early death. […] The HD128Q model thus has a functional deficit that in its phenotypic and neuropathological characteristics appears to be related to that seen in the human disease. Moreover, as the deficit is quantifiable and reproducible, it is suitable for automated high-throughput screening.
Standard environmental conditions were followed to establish that different metrics detect differences between disease and control flies. A comparison of compound-treated HD flies and untreated HD flies was also included. The positive control compound tested was the Histone Deacetylase (HDAC) inhibitor Trichostatin-A (TSA).
In an assay run (typically corresponding to one day of an entire multi-day assay) the following process was followed. Each tube was dropped onto a surface, causing the flies to fall to the bottom of the tube and be subjected to impact shock stimulation. Their immediate negative geotaxis response to that event was thereafter captured in a 7.5 second movie. For each tube, this step was repeated five times, giving a total of five repeat videos per tube and run. The raw data for each video were analyzed and trajectories following the movements of individual flies in a tube were generated. The method for analyzing fly trajectories is described in published U.S. Patent Application 2004/0076318A1, which is hereby incorporated by reference in its entirety. The trajectories consisted of a list of x- and y-coordinates mapping out the positions of all the flies in the video, as well as measurements of size, orientation, length and width of the flies, with one list entry for every frame from when the fly started moving in one frame until it stopped in another. […]

R6/2 transgenic mice [2] = experiment: Rotarod test in R6/2 transgenic mouse model of Huntington's disease; assay type: in vivo
Procedure: (§1) The rotarod test and body weight measurements were used to assess the therapeutic effects of clotrimazole in R6/2 transgenic mice. R6/2 and WT male mice at 4 weeks of age were trained 3 consecutive days on the accelerating rotarod. Each training day consisted of four sessions. After the training was complete, the animals were reassigned to new groups to create statistically homogenous cohorts. At 5 weeks of age, animals (n=10 per group) were dosed twice daily, intraperitoneally (IP) with clotrimazole at either 2 mg/kg or 10 mg/kg (equal to 4 and 20 mg/kg per day). Rotarod testing was performed at 6, 8, 10, and 12 weeks of age as described above. Body weights were collected every week.

R6/2 transgenic mice [3] = experiment: Body weight in R6/2 transgenic mouse model of Huntington's disease; assay type: in vivo
Procedure: as §1

R6/2 mice = experiment: Cage climbing and rearing in R6/2 mice; assay type: in vivo, mouse; conditions: for Cage climbing: 12 weeks
Excerpt: Cage climbing analysis involves filming a 10cm tall cylindrical cage into which an R6/2 (+/−drug) or WT mouse is placed. The mouse is allowed to move naturally ad libetum for a five minute session within the confines of the cage, while events such as rearing occurrences, climbing time and latency to climb are documented. Cage climbing and rearing data were collected at 12 weeks in this study.

[4] = cited from earlier work
[5] = conc 50, campaigns drawing 83, drawing 85
[6] = conc 100, campaigns drawing 74, drawing 76, drawing 83, drawing 89
[7] = conc 150, campaigns drawing 83, drawing 86, drawing 88, drawing 89
[8] = dose 50, weighted average of campaigns drawing 83, drawing 84 (Table 1)
[9] = dose 100, weighted average of campaigns drawing 74, drawing 76, drawing 83, drawing 84 (Table 1)
[10] = dose 150, weighted average of campaigns drawing 83, drawing 84 (Table 1)
[11] = food conc 50, listed as CLOTRIMAZOLE

## Clc1ccccc1C(c1ccccc1)(c1ccccc1)n1ccnc1 [clotrimazole]
[1]; [5]
  Early Speed Effect Size, combined campaigns: 0.867
  Early Speed Percent TSA, combined campaigns: 37.7%
  Late Speed Effect Size, combined campaigns: 1.076
  Late Speed Percent TSA, combined campaigns: 36.3%
[1]; [6]
  Early Speed Effect Size, combined campaigns: 0.89
  Early Speed Percent TSA, combined campaigns: 32%
  Late Speed Effect Size, combined campaigns: 1.372
  Late Speed Percent TSA, combined campaigns: 36.8%
[1]; [7]
  Early Speed Effect Size, combined campaigns: 1.211
  Early Speed Percent TSA, combined campaigns: 43.8%
  Late Speed Effect Size, combined campaigns: 1.664
  Late Speed Percent TSA, combined campaigns: 42.8%
[1]; [8]
  Early Speed Effect Size, Summary: 0.8
  Early Speed Percent TSA, Summary: 25.9%
  Late Speed Effect Size, Summary: 1.43
  Late Speed Percent TSA, Summary: 35.7%
[1]; [9]
  Early Speed Effect Size, Summary: 1.13
  Early Speed Percent TSA, Summary: 39.6%
  Late Speed Effect Size, Summary: 1.42
  Late Speed Percent TSA, Summary: 39.6%
[1]; [10]
  Early Speed Effect Size, Summary: 1.35
  Early Speed Percent TSA, Summary: 41.6%
  Late Speed Effect Size, Summary: 1.8
  Late Speed Percent TSA, Summary: 42.7%
[1]; doses 50, 100, 150 (Table 1)
  Climbing assay, dose dependence: dose-dependent effect
[1]
  Early Speed Effect Size: 0.73 and 0.88
[1]; listed as CLOTRIMAZOLE
  Early Speed Effect Size: 0.725 and 0.882 and 0.932
[1]; food conc 50 (μM)
  Early Speed Adj Value: 11.2 and 10.98 and 10.15
[1]; food conc 50
  Early Speed Percent TSA: 26.3% and 25.4%
  Late Speed Percent TSA: 38.8% and 31.5%
  Late Speed Adj Value: 6.587 and 5.802 and 6.193
  Late Speed Effect Size: 1.46 and 1.39
[1]; [11]
  Early Speed Percent TSA: 26.3% and 25.4% and 48.8%
  Late Speed Percent TSA: 38.8% and 31.5% and 36.8%
  Late Speed Effect Size: 1.458 and 1.39 and 0.767
[1]; food conc 100 (μM)
  Early Speed Adj Value: 10.12 and 11.32 and 11.4873 and 10.63 and 10.84
[1]; food conc 100
  Late Speed Adj Value: 5.805 and 5.534 and 6.208 and 6.981 and 6.155
[1]; food conc 150 (unit not given)
  Early Speed Adj Value: 11.15 and 11.68 and 10.57 and 10.74 and 11.13
[1]; food conc 150
  Late Speed Adj Value: 6.189 and 6.817 and 5.855 and 5.983 and 6.595
[1]; vs carrier controls, metrics early speed (days 1-7) and late speed (days 8-10)
  Effect in Drosophila model of HD: reproducible positive effects
R6/2 transgenic mice [2]; 20 mg/kg/day IP-BID, any time point tested (6, 8, 10, 12 weeks of age)
  Rotarod effect: did not have a statistically significant effect
R6/2 transgenic mice [2]; at the higher dose as printed, P=0.01 (Wilcoxon test)
  Rotarod effect vs vehicle-treated R6/2 animals: statistically-significant effect
R6/2 transgenic mice [2]; low dose of 4 mg/kg/day (2 mg/kg IP twice daily), preliminary data
  Behavior in vivo (rotarod): positively affects
R6/2 transgenic mice [3]; 4 mg/kg IP-BID, 12 week of age, F test ANOVA
  Body weight compared to vehicle-treated R6/2 mice: maintained a higher body weight
R6/2 transgenic mice [3]; 20 mg/kg IP-BID, any time point tested
  Body weight effect: did not have a statistically significant effect
R6/2 transgenic mice [3]; low dose of 4 mg/kg/day, preliminary data
  Weight in vivo: positively affects
R6/2 mice; 4 mg/kg (low dose)
  Cage climbing: Statistically significant improvement
R6/2 mice; 20 mg/kg (high dose)
  Cage climbing: Statistically significant improvement
R6/2 mice; 4 and 20 mg/kg dosing, preliminary data
  Motor performance by cage climbing and rearing: significantly improved the motor performance
[4]
  Known side effects in humans: lethargy, apathy, and weakness
